The NIST ThermoML archive (doi:10.1016/j.jct.2016.07.008)

Test: xn = mol fraction of the nth substance listed
Details: Liquid, Vibrating wire viscometry

CC(C)CC(C)(C)C [2,2,4-trimethylpentane] + CCCCO
viscosity [mPa·s]
Details	x2 = 0.3002	x2 = 0.5003	x2 = 0.8
293.15 K, 100 kPa	0.651	0.8986	1.777
293.15 K, 1000 kPa	0.6579	0.9064	1.805
293.15 K, 5000 kPa	0.6912	0.9556	1.837
293.15 K, 10000 kPa	0.7318	0.9979	1.949
293.15 K, 20000 kPa	0.8168	1.14	2.161
293.15 K, 30000 kPa	0.9098	1.274	2.353
293.15 K, 40000 kPa	1.004	1.415	2.578
293.15 K, 50000 kPa	1.108	1.562	2.826
293.15 K, 60000 kPa	1.215	1.739	3.038
293.15 K, 70000 kPa	1.324	1.895	3.308
293.15 K, 80000 kPa	1.433	2.055	3.537
293.15 K, 100000 kPa	1.679	2.387	4.066
293.15 K, 120000 kPa	1.942	2.735	4.653
293.15 K, 140000 kPa	2.211	3.099	5.322
313.15 K, 100 kPa	0.4938	0.6427	1.151
313.15 K, 1000 kPa	0.4951	0.6458	1.161
313.15 K, 5000 kPa	0.5303	0.6742	1.216
313.15 K, 10000 kPa	0.5681	0.7086	1.279
313.15 K, 20000 kPa	0.6344	0.8024	1.402
313.15 K, 30000 kPa	0.7073	0.8924	1.54
313.15 K, 40000 kPa	0.7728	0.9864	1.674
313.15 K, 50000 kPa	0.8419	1.084	1.825
313.15 K, 60000 kPa	0.9375	1.186	1.972
313.15 K, 70000 kPa	1.005	1.292	2.114
313.15 K, 80000 kPa	1.081	1.402	2.283
313.15 K, 100000 kPa	1.235	1.634	2.619
313.15 K, 120000 kPa	1.413	1.882	2.954
313.15 K, 140000 kPa	1.587	2.146	3.328
